Key:
K375 = assay: Cytotoxicity test, WST-8 (cell counting kit-8), 48 hours; assay type: cell-based; conditions: K375, KRAS G12D Hetero, read-out: KR12 IC50
Description: (§1) Using colon cancer and pancreatic cancer cell lines, the cells were seeded in each well of a 96-well microplate, resulting in a cell density of 3000 to 5000 cells/well, and they were then cultured overnight. On the following day, the cells of each type were treated with KR12 recognizing a codon 12 mutation in concentrations of 1 nM, 10 nM, 30 nM, 100 nM, 300 nM, and 1 μM for 48 hours. Thereafter, a WST-8 reagent was added to each well, using cell counting kit-8, and the obtained mixture was then reacted for 2 hours. After that, the number of cells was counted at a wavelength of 450 nm according to a colorimetric analysis method using a microplate reader. The method of counting the number of cells comprises: 1) obtaining the mean value of the medium alone, 2) subtracting the mean value of the medium from each well, 3) obtaining the mean value of DMSO, 4) dividing the medium-subtracted value by the mean value of DMSO and then multiplying by 100, 5) obtaining the mean value of each treatment group and a standard deviation, and then preparing a graph. The calculation formula of IC50 is the following: IC50=10 (LOG (A/B)×(50−C)/(D−C)+LOG (B)), wherein A: a higher concentration of two concentrations sandwiching 50%, B: a lower concentration of two concentrations sandwiching 50%, C: inhibitory percentage at B, and D: inhibitory percentage at A.

PANC-1 = assay: as above; assay type: cell-based; conditions: Homo sapiens, PANC-1, KRAS G12D Hetero, read-out: KR12 IC50
Description: as §1

[1] = test system: mutant codon 12 KRAS gene and wild-type KRAS gene in LS180; assay: Colony sequence of KRAS transcripts, LS180; assay type: cell-based, human; conditions: for MUT (number of mutant gene colonies) / WT (number of wild-type gene colonies): LS180, 50 nM, 48 hours, colony sequence, Table 2; for number of mutant gene colonies relative to wild-type gene colonies: LS180, colony sequence method
Description: The cells (6.5×10^4) were seeded and were then cultured overnight. Thereafter, the cultured cells were treated with 50 nM KR12 or KR13, and were then cultured for 48 hours. After that, the cultured cells were harvested, and RNA was then extracted. For the extraction, RT-PCT was carried out using RNeasy mini kit (Qiagen, CA). Subsequently, using the extracted RNA as a template, cDNA for reverse transcription was prepared by employing Super Script VILO cDNA Synthesis Kit (Invitrogen, CA). Using the prepared cDNA as a template, PCR was carried out using the primers shown in SEQ ID NO: 7 and SEQ ID NO: 8. After a reaction had been carried out at 94° C. for 5 minutes, a reaction cycle of 94° C.-30 seconds, 55° C.-30 seconds, and 72° C.-30 seconds was repeated 20 times. Finally, an elongation reaction was carried out at 72° C. for 7 minutes. The PCR product was cloned using pGEM-T Easy vector (Promega, WI). Thereafter, Escherichia coli DH5α competent cells (Toyobo, Japan) were transformed with the clone, and the obtained transformant was then cultured at 37° C. overnight in an LB plate containing 50 μg/mL ampicillin, 1 mg of X-gal and 1 mg of isopropyl-β-thiogalactopyranoside. White colonies were identified by colony direct PCR. Regarding the PCR reaction cycle, after a reaction had been carried out at 94° C. for 5 minutes, a reaction cycle of 94° C.-30 seconds, 55° C.-30 seconds, and 72° C.-30 seconds was repeated 30 times. Finally, an elongation reaction was carried out at 72° C. for 7 minutes. The following primer set, namely, an M13-F1 primer and an M13-R1 primer were used for amplification. The sequence of the amplified DNA was decoded using a sequencing primer KRAS-2R, and the KRAS gene mutation site in each colony was then identified.
KR12, which was considered to specifically alkylate the KRAS mutant codon 12 gene, was administered to a heterozygous colon cancer cell line LS180 having both a mutant codon 12 KRAS gene and a wild-type KRAS gene. Forty-eight hours later, RNA was extracted, and the KRAS gene was then quantitatively amplified. The amplified gene was cloned into a plasmid, using a TA cloning kit, and the obtained plasmid was then introduced into competent cells. Thereafter, by performing blue-white selection using an LB/amp/IPTG/X-Gal plate, white colonies having inserts were picked up, and then, the presence or absence of a colon 12 mutation in each colony was examined by direct sequencing or by a colony PCR method.

[2] = test system: mutant KRAS genes and wild-type KRAS genes in PANC-1; assay: Colony analysis of KRAS transcripts, PANC-1; assay type: cell-based; conditions: for MUT (number of mutant gene colonies) / WT (number of wild-type gene colonies): PANC-1, Table 4

SMILES	IC50 (K375) [nM]	IC50 (PANC-1) [nM]	MUT (number of mutant gene colonies) [1]	WT (number of wild-type gene colonies) [1]	number of mutant gene colonies relative to wild-type gene colonies [1]	MUT (number of mutant gene colonies) [2]	WT (number of wild-type gene colonies) [2]	expression levels of the mutant KRAS genes relative to wild-type KRAS genes ([2]; PANC-1, control group mutant 3-fold higher than wild-type)
CC(=O)Nc1cn(C)c(C(=O)Nc2cc(C(=O)NCCC(=O)Nc3cn(C)c(C(=O)Nc4cn(C)c(C(=O)Nc5cc(C(=O)Nc6cn(C)c(C(=O)NCCCC(=O)Nc7cc(C(=O)Nc8cn(C)c(C(=O)NCCC(=O)Nc9cc(C(=O)Nc%10cc(C(=O)Nc%11ccc%12[nH]c(C(=O)N%13CC(CCl)c%14c%13cc(O)c%13ccccc%14%13)cc%12c%11)n(C)c%10)n(C)c9)n8)n(C)c7)n6)n(C)c5)n4)n3)n(C)c2)n1 (stereo not shown) [KR12]	78	81	14	29	the number of mutant gene colonies was a half of the number of wild-type gene colonies	24	21	decreased to the same levels of the wild-type KRAS genes
CC(=O)Nc1cn(C)c(C(=O)Nc2cn(C)c(C(=O)Nc3cc(C(=O)Nc4cn(C)c(C(=O)NCCC(=O)Nc5cc(C(=O)Nc6cn(C)c(C(=O)NCCCC(=O)Nc7cc(C(=O)Nc8cn(C)c(C(=O)Nc9cc(C(=O)NCCC(=O)Nc%10cc(C(=O)Nc%11ccc%12[nH]c(C(=O)N%13CC(CCl)c%14c%13cc(O)c%13ccccc%14%13)cc%12c%11)n(C)c%10)n(C)c9)n8)n(C)c7)n6)n(C)c5)n4)n(C)c3)n2)n1 (stereo not shown) [KR13]	–	–	22	15	the number of mutant genes was rather increased	18	8	–
